These results are taken from patent publication US20190031599A1, “INDANE DERIVATIVES AS MGLUR7 MODULATORS” (Takeda Pharmaceutical Company Limited, priority 2016, published 2019).

Where a name gives a salt, the structure may show the parent alone.

As a reminder, the EC50 is the concentration at which the effect is half-maximal.

This test addresses T1, human mGluR7 (Homo sapiens, UniProt Q14831).
T1 construct: expressed in transfected cells
Briefly: mGluR7 assay: CRE-directed luciferase reporter gene assay, reduction of forskolin stimulated cAMP production. As to conditions: stable CHO cell line expressing the CRE-luc reporter and human mGluR7 genes; decrease of forskolin stimulated luminescence; 10-point concentration-response, duplicate wells. It is filed as cell-based. How it is done:
The ability of the test compounds to activate mGluR7 was determined by their ability to reduce forskolin stimulated cAMP production. Compounds were assessed in a CRE-directed luciferase reporter gene assay, using a stable CHO cell line expressing the CRE-luc reporter and human mGluR7 genes. In this cell line, production of cAMP stimulated the transcription of the luciferase gene and luciferase activity was then measured in a luminescent enzyme assay (Steady Glo assay; Promega E2550). Activation of mGluR7 decreased the forskolin stimulated luminescence signal.
The day prior to the assay, compounds were serially diluted in DMSO (100× final assay concentration (FAC)), in 384-well plates which were then stored in the dark at room temperature (RT) until use. Cells were seeded at 12.5 k/well in white, clear bottom 384-well plates (Corning 3707) and left for one hour at RT followed by an overnight incubation (37° C.). The following day, the DMSO compound plate was diluted 1:20 (5× FAC) in Opti-MEM I (Life Technologies 11058021). The growth media was removed from the cell plate and replaced with 15 μl Opti-MEM I, followed by a 5 μl addition from the 5× compound plate and a fifteen minute incubation (37° C.). Forskolin (Sigma F3917) was then added to the wells (5 μl of 2.5 μM) and the plate was incubated for five hours (37° C.). During this incubation, the Steady Glo Substrate reagent was warmed to 37° C. Aliquots (11 ml; stored at −20° C.) of this reagent were prepared by dissolving the contents of 1 vial of lyophilised substrate in 100 ml Steady-Glo buffer. A 25 μl addition of the substrate was made to all wells and the plate was incubated for thirty minutes at RT, on a plate shaker (300 rpm; in the dark). Luminescence was then measured using the EnVision Multilabel Reader (Perkin Elmer).
Compound activity was examined using a 10-point, half log concentration-response range and each concentration was tested in duplicate wells. Luminescence values were normalised to ‘maximum’ (forskolin alone) and ‘minimum’ (forskolin in the presence of tool mGluR7 agonist) controls.
(Reporter assays use an easily measured gene product as a stand-in for the process of interest.)

T1 sequence (Q14831 35-915): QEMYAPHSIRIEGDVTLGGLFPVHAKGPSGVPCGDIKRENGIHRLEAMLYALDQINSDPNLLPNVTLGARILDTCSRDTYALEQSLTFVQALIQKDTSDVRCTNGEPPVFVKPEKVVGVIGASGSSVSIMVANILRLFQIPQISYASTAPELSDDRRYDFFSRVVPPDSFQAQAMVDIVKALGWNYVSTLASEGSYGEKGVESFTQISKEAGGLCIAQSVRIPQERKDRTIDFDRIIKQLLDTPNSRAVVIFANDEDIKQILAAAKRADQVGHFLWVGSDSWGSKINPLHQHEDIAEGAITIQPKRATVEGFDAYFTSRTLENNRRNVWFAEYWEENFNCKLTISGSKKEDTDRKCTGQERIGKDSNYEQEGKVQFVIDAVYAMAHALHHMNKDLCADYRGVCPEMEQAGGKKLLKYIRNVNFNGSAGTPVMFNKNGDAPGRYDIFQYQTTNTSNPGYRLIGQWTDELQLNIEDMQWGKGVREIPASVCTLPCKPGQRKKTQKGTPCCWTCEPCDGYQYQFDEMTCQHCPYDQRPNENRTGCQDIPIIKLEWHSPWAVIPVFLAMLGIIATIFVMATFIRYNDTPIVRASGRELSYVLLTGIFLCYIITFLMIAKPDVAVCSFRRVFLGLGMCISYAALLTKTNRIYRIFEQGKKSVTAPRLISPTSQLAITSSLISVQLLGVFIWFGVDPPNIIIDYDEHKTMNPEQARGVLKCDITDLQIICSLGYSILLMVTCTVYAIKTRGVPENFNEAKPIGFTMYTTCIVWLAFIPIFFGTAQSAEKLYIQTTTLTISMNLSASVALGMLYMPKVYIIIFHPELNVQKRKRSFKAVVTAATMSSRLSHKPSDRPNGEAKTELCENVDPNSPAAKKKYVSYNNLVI

`CN[C@H]1c2ccccc2C[C@@H]1NC(=O)[C@@H](C)c1ccccc1` [Example 22, (2S)—N-[(1S,2S)-1-(methylamino)-2,3-dihydro-1H-inden-2-yl]-2-phenylpropanamide] registered an EC50 of 70 nM. The same measure for `CC1c2ccccc2CC1NC(=O)[C@@H](NC(=O)OC(C)(C)C)c1ccc(F)cc1` (stereo in doubt) [Example 71, tert-butyl N—[(S)-(4-fluorophenyl)[(trans)-(1-methyl-2,3-dihydro-1H-inden-2-yl)carbamoyl]methyl]carbamate]: 2 nM; for `N[C@H]1c2ccccc2C[C@@H]1NC(=O)C(c1ccc(F)cc1F)N1CC(F)C1` (single isomer, unassigned) [Example 106]: 81 nM; for `C[C@H](C(=O)NC1Cc2ccccc2C1N1CCCC1)c1ccc(F)cc1` (single isomer, unassigned) [Example 67]: 16 nM.

Molecule `C[C@H](C(=O)N[C@H]1Cc2ccccc2[C@@H]1NCc1ncccc1F)c1ccc(F)cc1F` [Example 92, (2S)-2-(2,4-difluorophenyl)-N-[(1S,2S)-1-{[(3-fluoropyridin-2-yl)methyl]amino}-2,3-dihydro-1H-inden-2-yl]propanamide] showed an EC50 of 7 nM. In the case of `CCOC1c2ccccc2CC1NC(=O)[C@@H](C)c1ccc(F)cc1` (single isomer, unassigned) [Example 32], the concentration giving a half-maximal response (EC50) was 14 nM. `COC1c2ccccc2CC1NC(=O)[C@@H](C)c1ccc(F)cc1F` (single isomer, unassigned) [Example 26] displayed an EC50 of 64 nM. `C[C@H](C(=O)N[C@@H]1Cc2ccccc2[C@H]1N)c1ccc(F)cc1F` [Example 35, (2S)—N-[(1R,2R)-1-amino-2,3-dihydro-1H-inden-2-yl]-2-(2,4-difluorophenyl)propanamide] returned an EC50 of 233 nM.

On to `C[C@H](C(=O)NC1Cc2ccccc2C1O)c1ccc(F)cc1` (stereo in doubt) [Example 61, (2S)-2-(4-fluorophenyl)-N-(trans)-(1-hydroxy-2,3-dihydro-1H-inden-2-yl)propanamide], for which the half-maximal effective concentration (EC50) is 56 nM. The same measure for `CC(C(=O)N[C@H]1Cc2ccccc2[C@@H]1N)c1ccc(C(F)(F)F)cc1` (stereo partly drawn) [Example 58, N-[(1S,2S)-1-amino-2,3-dihydro-1H-inden-2-yl]-2-[4-(trifluoromethyl)phenyl]propanamide hydrochloride]: 1780 nM. The same measure for `CC(F)(C(=O)N[C@H]1Cc2ccccc2[C@@H]1N)c1ccc(F)cc1` (single isomer, unassigned) [Example 76]: 288 nM. The same measure for `CS(=O)(=O)C1c2ccccc2CC1NC(=O)C(OCC1CC1)c1ccccc1` (single isomer, unassigned) [Example 145, 2-(cyclopropylmethoxy)-N-(trans)-(1-methanesulfonyl-2,3-dihydro-1H-inden-2-yl)-2-phenylacetamide]: 0.6 nM. On to `CC(C(=O)N[C@H]1Cc2ccccc2[C@@H]1NC(=O)OC(C)(C)C)c1ccc(F)cc1C(F)(F)F` (stereo partly drawn) [Example 154, tert-butyl N-[(1S,2S)-2-{2-[4-fluoro-2-(trifluoromethyl)phenyl]propanamido}-2,3-dihydro-1H-inden-1-yl]carbamate], for which the EC50 turned out to be 326 nM.

`CO[C@H](C(=O)NC1Cc2ccccc2C1S(C)(=O)=O)c1ccccc1` (single isomer, unassigned) [Example 158] gave an EC50 of 56 nM.

In the case of `COC1c2ccccc2CC1NC(=O)[C@@H](C)c1ccc(F)cc1` (mixture of isomers) [Example 36, (2S)-2-(4-fluorophenyl)-N-((trans)-1-methoxy-2,3-dihydro-1H-inden-2-yl)propanamide], the EC50 was determined as 36 nM. The same measure for `COC1CN(C(C(=O)N[C@H]2Cc3ccccc3[C@@H]2N)c2ccc(F)cc2F)C1` (stereo partly drawn) [Example 111, N-[(1S,2S)-1-amino-2,3-dihydro-1H-inden-2-yl]-2-(2,4-difluorophenyl)-2-(3-methoxyazetidin-1-yl)acetamide]: 135 nM; for `CC[C@H](C(=O)NC1Cc2ccccc2C1OC)c1ccc(F)cc1` (single isomer, unassigned) [Example 46]: 11 nM. The same measure for `COC1c2ccccc2C[C@@H]1NC(=O)[C@@H](NS(=O)(=O)c1c(C)noc1C)c1ccc(F)cc1` (stereo partly drawn) [Example 83, (2S)-2-(3,5-dimethyl-1,2-isoxazole-4-sulfonamido)-2-(4-fluorophenyl)-N-((trans)-1-methoxy-2,3-dihydro-1H-inden-2-yl)acetamide]: 26 nM. The same measure for `N[C@H]1c2ccccc2C[C@@H]1NC(=O)C(c1ccc(F)cc1F)N1CC(F)C1` (single isomer, unassigned) [Example 107]: 1220 nM; for `N[C@H]1c2ccccc2C[C@@H]1NC(=O)C(c1ccc(F)cc1)N1CC(F)C1` (single isomer, unassigned) [Example 116]: 241 nM.

For the molecule `CS(=O)(=O)[C@@H]1c2ccccc2C[C@H]1NC(=O)C(OCC1CC1)c1ccc(F)cc1` (single isomer, unassigned) [Example 161, 2-(cyclopropylmethoxy)-2-(4-fluorophenyl)-N-(trans)-(1-methanesulfonyl-2,3-dihydro-1H-inden-2-yl)acetamide], the EC50 was 2 nM.

`CCOC1c2ccccc2CC1NC(=O)C(C)c1ccc(F)cc1F` (single isomer, unassigned) [Example 30] came in with an EC50 of 22 nM. The same measure for `COC1c2ccccc2CC1NC(=O)C(c1ccc(F)cc1)N1CC(F)C1` (single isomer, unassigned) [Example 140, 2-(4-fluorophenyl)-2-(3-fluoroazetidin-1-yl)-N-(trans)-(1-methoxy-2,3-dihydro-1H-inden-2-yl)acetamide]: 1270 nM; for `C[C@H](C(=O)N[C@H]1Cc2ccccc2[C@@H]1NC(=O)OC(C)(C)C)c1ccc(F)cc1` [Example 21, tert-butyl N-[(1S,2S)-2-[(2S)-2-(4-fluorophenyl)propanamido]-2,3-dihydro-1H-inden-1-yl]carbamate]: 28 nM. The same measure for `COC1c2ccccc2CC1NC(=O)[C@@H](C)c1ccc(F)cc1` (single isomer, unassigned) [Example 38]: 16 nM. The same measure for `N[C@H]1c2ccccc2C[C@@H]1NC(=O)C(c1ccc(F)cc1)C1CC1` (stereo partly drawn) [Example 86, N-[(1S,2S)-1-amino-2,3-dihydro-1H-inden-2-yl]-2-cyclopropyl-2-(4-fluorophenyl)acetamide]: 721 nM; for `C[C@H](C(=O)N[C@@H]1Cc2ccccc2[C@H]1NC(=O)OC(C)(C)C)c1ccccc1` [Example 18, tert-butyl N-[(1R,2R)-2-[(2S)-2-phenylpropanamido]-2,3-dihydro-1H-inden-1-yl]carbamate]: 150 nM. The molecule `C[C@H](C(=O)N[C@H]1Cc2ccccc2[C@@H]1N)c1ccc(F)cc1F` [Example 34, (2S)—N-[(1S,2S)-1-amino-2,3-dihydro-1H-inden-2-yl]-2-(2,4-difluorophenyl)propanamide] registered an EC50 of 95 nM. Regarding `C[C@H](C(=O)N[C@@H]1Cc2ccccc2[C@H]1N)c1ccccc1` [Example 12, (2S)—N-[(1R,2R)-1-amino-2,3-dihydro-1H-inden-2-yl]-2-phenylpropanamide], the midpoint of the response, the EC50, lay at 290 nM.
